{"source": "PubChem BioAssay (NCI)", "assay_in_all_cases": "NCI-60 cell line screen, 48 h", "key": {"[1]": {"system": "OVCAR-4 ovarian"}, "[2]": {"system": "SW-620 colon"}, "[3]": {"system": "SK-MEL-28 melanoma"}, "[4]": {"system": "UO-31 renal"}, "[5]": {"system": "HCT-116 colon"}, "[6]": {"system": "MDA-MB-435"}, "[7]": {"system": "NCI-H226 lung"}, "[8]": {"system": "BT-549 breast"}, "[9]": {"system": "UACC-257 melanoma"}, "[10]": {"system": "NCI-H460 lung"}, "[11]": {"system": "SF-268 CNS"}, "[12]": {"system": "CCRF-CEM leukemia"}, "[13]": {"system": "SK-MEL-5 melanoma"}, "[14]": {"system": "SF-539 CNS"}, "[15]": {"system": "ACHN renal"}, "[16]": {"system": "DU-145 prostate"}, "[17]": {"system": "A549 NSCLC"}, "[18]": {"system": "HCT-15 colon"}, "[19]": {"system": "SNB-75 CNS"}, "[20]": {"system": "KM12 colon"}, "[21]": {"system": "PC-3 prostate"}, "[22]": {"system": "RXF 393 renal"}, "[23]": {"system": "OVCAR-5 ovarian"}, "[24]": {"system": "HCC-2998 colon"}, "[25]": {"system": "OVCAR-3 ovarian"}, "[26]": {"system": "HS 578T breast"}, "[27]": {"system": "SK-MEL-2 melanoma"}, "[28]": {"system": "NCI-H23 lung"}, "[29]": {"system": "K-562 leukemia"}, "[30]": {"system": "TK-10 renal"}, "[31]": {"system": "EKVX NSCLC"}, "[32]": {"system": "SR leukemia"}, "[33]": {"system": "SN12C renal"}, "[34]": {"system": "A498 renal"}, "[35]": {"system": "786-0 renal"}, "[36]": {"system": "MOLT-4 leukemia"}, "[37]": {"system": "SF-295 CNS"}, "[38]": {"system": "HOP-92 NSCLC"}, "[39]": {"system": "HOP-62 NSCLC"}, "[40]": {"system": "HT29 colon"}, "[41]": {"system": "NCI/ADR-RES ovarian"}, "[42]": {"system": "MALME-3M melanoma"}, "[43]": {"system": "SNB-19 CNS"}, "[44]": {"system": "LOX IMVI melanoma"}, "[45]": {"system": "COLO 205 colon"}, "[46]": {"system": "HL-60(TB) leukemia"}, "[47]": {"system": "U251 CNS"}, "[48]": {"system": "M14 melanoma"}, "[49]": {"system": "UACC-62 melanoma"}, "[50]": {"system": "NCI-H522 lung"}, "[51]": {"system": "OVCAR-8 ovarian"}, "[52]": {"system": "T-47D breast"}, "[53]": {"system": "SK-OV-3 ovarian"}, "[54]": {"system": "CAKI-1 renal"}}, "note": "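Results reflect a 48-hour exposure of cells in 96-well plates to compound at five concentrations. The concentration for 50% growth inhibition is given as GI50. The concentration for full growth arrest is given as TGI.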", "data": [{"molecule": "CC(C)(C)c1cc(C(=O)Nc2ccc(C(=O)NCCN)cc2)cc(C(C)(C)C)c1", "values": [{"measurement": "GI50", "setting": "[1]", "result": 2.71, "unit": "µM"}, {"measurement": "TGI", "setting": "[1]", "result": 11, "unit": "µM"}, {"measurement": "GI50", "setting": "[2]", "result": 1.84, "unit": "µM"}, {"measurement": "TGI", "setting": "[2]", "result": 3.65, "unit": "µM"}, {"measurement": "GI50", "setting": "[3]", "result": 1.79, "unit": "µM"}, {"measurement": "TGI", "setting": "[3]", "result": 3.67, "unit": "µM"}, {"measurement": "GI50", "setting": "[4]", "result": 4.68, "unit": "µM"}, {"measurement": "TGI", "setting": "[4]", "result": 22, "unit": "µM"}, {"measurement": "GI50", "setting": "[5]", "result": 3.36, "unit": "µM"}, {"measurement": "TGI", "setting": "[5]", "result": 12.7, "unit": "µM"}, {"measurement": "GI50", "setting": "[6]", "result": 1.52, "unit": "µM"}, {"measurement": "TGI", "setting": "[6]", "result": 3.09, "unit": "µM"}, {"measurement": "GI50", "setting": "[7]", "result": 6.43, "unit": "µM"}, {"measurement": "TGI", "setting": "[7]", "result": 28.1, "unit": "µM"}, {"measurement": "GI50", "setting": "[8]", "result": 13.1, "unit": "µM"}, {"measurement": "TGI", "setting": "[8]", "result": 33.6, "unit": "µM"}, {"measurement": "GI50", "setting": "[9]", "result": 17.7, "unit": "µM"}, {"measurement": "TGI", "setting": "[9]", "result": 37.4, "unit": "µM"}, {"measurement": "GI50", "setting": "[10]", "result": 1.93, "unit": "µM"}, {"measurement": "TGI", "setting": "[10]", "result": 3.73, "unit": "µM"}, {"measurement": "GI50", "setting": "[11]", "result": 2.03, "unit": "µM"}, {"measurement": "TGI", "setting": "[11]", "result": 5.05, "unit": "µM"}, {"measurement": "GI50", "setting": "[12]", "result": 2.54, "unit": "µM"}, {"measurement": "TGI", "setting": "[12]", "result": 7.28, "unit": "µM"}, {"measurement": "GI50", "setting": "[13]", "result": 1.74, "unit": "µM"}, {"measurement": "TGI", "setting": "[13]", "result": 3.15, "unit": "µM"}, {"measurement": "GI50", "setting": "[14]", "result": 1.68, "unit": "µM"}, {"measurement": "TGI", "setting": "[14]", "result": 3.41, "unit": "µM"}, {"measurement": "GI50", "setting": "[15]", "result": 4.45, "unit": "µM"}, {"measurement": "TGI", "setting": "[15]", "result": 18.7, "unit": "µM"}, {"measurement": "GI50", "setting": "[16]", "result": 3.46, "unit": "µM"}, {"measurement": "TGI", "setting": "[16]", "result": 12.4, "unit": "µM"}, {"measurement": "GI50", "setting": "[17]", "result": 3.15, "unit": "µM"}, {"measurement": "TGI", "setting": "[17]", "result": 9.41, "unit": "µM"}, {"measurement": "GI50", "setting": "[18]", "result": 4.75, "unit": "µM"}, {"measurement": "TGI", "setting": "[18]", "result": 19.4, "unit": "µM"}, {"measurement": "GI50", "setting": "[19]", "result": 4.02, "unit": "µM"}, {"measurement": "TGI", "setting": "[19]", "result": 24.5, "unit": "µM"}, {"measurement": "GI50", "setting": "[20]", "result": 2.22, "unit": "µM"}, {"measurement": "TGI", "setting": "[20]", "result": 5.14, "unit": "µM"}, {"measurement": "GI50", "setting": "[21]", "result": 3.07, "unit": "µM"}, {"measurement": "TGI", "setting": "[21]", "result": 11, "unit": "µM"}, {"measurement": "GI50", "setting": "[22]", "result": 1.68, "unit": "µM"}, {"measurement": "TGI", "setting": "[22]", "result": 3.16, "unit": "µM"}, {"measurement": "GI50", "setting": "[23]", "result": 6.07, "unit": "µM"}, {"measurement": "TGI", "setting": "[23]", "result": 22.8, "unit": "µM"}, {"measurement": "GI50", "setting": "[24]", "result": 1.69, "unit": "µM"}, {"measurement": "TGI", "setting": "[24]", "result": 3.18, "unit": "µM"}, {"measurement": "GI50", "setting": "[25]", "result": 2.18, "unit": "µM"}, {"measurement": "TGI", "setting": "[25]", "result": 4.97, "unit": "µM"}, {"measurement": "GI50", "setting": "[26]", "result": 2.2, "unit": "µM"}, {"measurement": "TGI", "setting": "[26]", "result": 5.96, "unit": "µM"}, {"measurement": "GI50", "setting": "[27]", "result": 2.15, "unit": "µM"}, {"measurement": "TGI", "setting": "[27]", "result": 4.85, "unit": "µM"}, {"measurement": "GI50", "setting": "[28]", "result": 3.19, "unit": "µM"}, {"measurement": "TGI", "setting": "[28]", "result": 14.4, "unit": "µM"}, {"measurement": "GI50", "setting": "[29]", "result": 1.94, "unit": "µM"}, {"measurement": "TGI", "setting": "[29]", "result": 5.06, "unit": "µM"}, {"measurement": "GI50", "setting": "[30]", "result": 2.99, "unit": "µM"}, {"measurement": "TGI", "setting": "[30]", "result": 9.64, "unit": "µM"}, {"measurement": "GI50", "setting": "[31]", "result": 2.04, "unit": "µM"}, {"measurement": "TGI", "setting": "[31]", "result": 14.5, "unit": "µM"}, {"measurement": "GI50", "setting": "[32]", "result": 1.47, "unit": "µM"}, {"measurement": "TGI", "setting": "[32]", "result": 4.82, "unit": "µM"}, {"measurement": "GI50", "setting": "[33]", "result": 1.98, "unit": "µM"}, {"measurement": "TGI", "setting": "[33]", "result": 3.9, "unit": "µM"}, {"measurement": "GI50", "setting": "[34]", "result": 8.27, "unit": "µM"}, {"measurement": "TGI", "setting": "[34]", "result": 26, "unit": "µM"}, {"measurement": "GI50", "setting": "[35]", "result": 1.56, "unit": "µM"}, {"measurement": "TGI", "setting": "[35]", "result": 3.07, "unit": "µM"}, {"measurement": "GI50", "setting": "[36]", "result": 2.63, "unit": "µM"}, {"measurement": "TGI", "setting": "[36]", "result": 7.3, "unit": "µM"}, {"measurement": "GI50", "setting": "[37]", "result": 1.73, "unit": "µM"}, {"measurement": "TGI", "setting": "[37]", "result": 3.47, "unit": "µM"}, {"measurement": "GI50", "setting": "[38]", "result": 2.82, "unit": "µM"}, {"measurement": "TGI", "setting": "[38]", "result": 12.6, "unit": "µM"}, {"measurement": "GI50", "setting": "[39]", "result": 4.5, "unit": "µM"}, {"measurement": "TGI", "setting": "[39]", "result": 21.8, "unit": "µM"}, {"measurement": "GI50", "setting": "[40]", "result": 2, "unit": "µM"}, {"measurement": "TGI", "setting": "[40]", "result": 5.19, "unit": "µM"}, {"measurement": "GI50", "setting": "[41]", "result": 14.7, "unit": "µM"}, {"measurement": "TGI", "setting": "[41]", "result": 35, "unit": "µM"}, {"measurement": "GI50", "setting": "[42]", "result": 1.43, "unit": "µM"}, {"measurement": "TGI", "setting": "[42]", "result": 3.13, "unit": "µM"}, {"measurement": "GI50", "setting": "[43]", "result": 3.65, "unit": "µM"}, {"measurement": "TGI", "setting": "[43]", "result": 16.6, "unit": "µM"}, {"measurement": "GI50", "setting": "[44]", "result": 1.65, "unit": "µM"}, {"measurement": "TGI", "setting": "[44]", "result": 3.16, "unit": "µM"}, {"measurement": "GI50", "setting": "[45]", "result": 1.85, "unit": "µM"}, {"measurement": "TGI", "setting": "[45]", "result": 3.77, "unit": "µM"}, {"measurement": "GI50", "setting": "[46]", "result": 1.9, "unit": "µM"}, {"measurement": "TGI", "setting": "[46]", "result": 3.87, "unit": "µM"}, {"measurement": "GI50", "setting": "[47]", "result": 1.91, "unit": "µM"}, {"measurement": "TGI", "setting": "[47]", "result": 3.88, "unit": "µM"}, {"measurement": "GI50", "setting": "[48]", "result": 1.71, "unit": "µM"}, {"measurement": "TGI", "setting": "[48]", "result": 3.42, "unit": "µM"}, {"measurement": "GI50", "setting": "[49]", "result": 1.86, "unit": "µM"}, {"measurement": "TGI", "setting": "[49]", "result": 3.56, "unit": "µM"}, {"measurement": "GI50", "setting": "[50]", "result": 2.41, "unit": "µM"}, {"measurement": "TGI", "setting": "[50]", "result": 7.63, "unit": "µM"}, {"measurement": "GI50", "setting": "[51]", "result": 3.39, "unit": "µM"}, {"measurement": "TGI", "setting": "[51]", "result": 10.9, "unit": "µM"}, {"measurement": "GI50", "setting": "[52]", "result": 2.07, "unit": "µM"}, {"measurement": "TGI", "setting": "[52]", "result": 5.58, "unit": "µM"}, {"measurement": "GI50", "setting": "[53]", "result": 5.31, "unit": "µM"}, {"measurement": "TGI", "setting": "[53]", "result": 20.7, "unit": "µM"}, {"measurement": "GI50", "setting": "[54]", "result": 15.5, "unit": "µM"}, {"measurement": "TGI", "setting": "[54]", "result": 32.9, "unit": "µM"}]}]}
